Source: patent publication US20100197608A1, “USE OF MELANOTROPHIN-POTENTIATING FACTOR AS A THERAPEUTIC AGENT” (priority 2007, published 2010)
Where a SMILES comes first, the peptide text is derived from it.

System: drug-resistant Mycobacterium tuberculosis
Details: drug-resistant Mycobacterium tuberculosis growth; peptide 10 micrograms per ml; seven days

Question: For NCCCC[C@H](NC(=O)[C@@H](N)CCCCN)C(=O)NCC(=O)N[C@@H](CCC(=O)O)C(=O)O [MPF, Lys-Lys-Gly-Glu-OH] (H-KKGE-OH), which “% inhibition” value is on record?
Answer: Its value is 0.0%.
